We go through 77 compounds from article PMC12064818, “A general assay platform to study protein pharmacology using ligand-dependent structural dynamics” (Nature Communications, 2025).

The target of the test is T1, FLuc-C-HiBiT (Photinus pyralis, UniProt P08659).
T1 construct: firefly luciferase with C-terminal HiBiT tag, E. coli expressed
Description: biochemical. Particulars: enzyme activity, 10 uM ATP; read-out: IC50 or SDR50 (mM) / FLuc E.

T1 sequence (P08659 whole entry, looked up): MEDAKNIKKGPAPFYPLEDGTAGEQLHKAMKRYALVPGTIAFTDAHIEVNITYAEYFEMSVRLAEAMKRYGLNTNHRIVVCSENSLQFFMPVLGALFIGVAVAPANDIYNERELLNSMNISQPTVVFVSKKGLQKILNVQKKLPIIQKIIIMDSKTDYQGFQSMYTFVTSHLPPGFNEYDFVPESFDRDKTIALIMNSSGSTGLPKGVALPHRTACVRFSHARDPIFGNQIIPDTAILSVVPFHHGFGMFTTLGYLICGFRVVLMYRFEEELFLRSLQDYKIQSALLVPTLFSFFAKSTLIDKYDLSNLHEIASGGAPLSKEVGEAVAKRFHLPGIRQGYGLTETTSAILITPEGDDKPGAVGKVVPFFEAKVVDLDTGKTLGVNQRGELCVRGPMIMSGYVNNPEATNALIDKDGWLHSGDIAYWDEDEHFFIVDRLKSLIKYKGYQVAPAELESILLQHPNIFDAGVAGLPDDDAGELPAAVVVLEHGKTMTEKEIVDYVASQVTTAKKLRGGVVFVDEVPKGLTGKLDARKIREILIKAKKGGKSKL

As for `Cc1ccc(C(=O)Nc2ccc3oc(-c4cccnc4)nc3c2)c(Cl)c1` [NCGC00099674-01], the IC50 is 1.4 µM.
The result for `N#Cc1ccc(C(=O)Nc2ccccc2-c2nc3ccccc3s2)c(F)c1` [NCGC00103058-01] reads more than 30 µM.
With `CC1CCCCN1c1ncnc2c1cnn2-c1ccccc1` (centres unmarked) [NCGC00605414-01], the IC50 came out at 1.11 µM.
Next, `COc1cccc(C(=O)Nc2ccc3nc(SCC(=O)N4CCOCC4)sc3c2)c1` [NCGC00118677-01]: 9.89 µM; `COc1cccc(-c2nc(-c3cccc(C(=O)O)c3)no2)c1` [NCGC00168766-01]: 0.00394 µM.
Consider `O=C1c2cnc(-c3ccc(CO)cc3)nc2OCCN1CC1CC1` [NCGC00413563-01], for which the IC50 was found to be 11.4 µM.
Take `O=C(O)c1cccc(-c2noc(-c3cccc(Cl)c3)n2)c1` [NCGC00168763-01]: the IC50 turned out to be 0.007 µM.
The result for `Cc1cc(Cl)ccc1-n1ncc2c(N3CCCCC3)ncnc21` [NCGC00651954-01] reads 4.42 µM; that for `Cc1ccccc1CN1CC[C@H](c2nc3cc(F)ccc3[nH]2)C1` [NCGC00396601-01], 25.5 µM.
The result for `COc1cccc(-c2cc3c(=O)n(CCNC(=O)c4ccccc4Cl)ccn3n2)c1` [NCGC00457089-01] reads 8.81 µM; that for `COc1cccc(-c2cn3ncsc3n2)c1` [NCGC00117781-01], 11.1 µM; that for `COc1cccc(-n2cc(CN(C)c3ncncn3)cn2)c1` [NCGC00424283-01], more than 30 µM.
Next, `Cn1cc(-c2cccc(COc3ccc4c(cnn4CC[S+](C)(=O)[O-])c3)c2)cn1` [NCGC00418049-01]: 18 µM; `COCCN1CCC2(C1)CN(C)c1ccc(C(=O)Nc3ccc(F)cc3)cc12` (centres unmarked) [NCGC00419287-01]: 7.18 µM; `CCc1ccc2oc(-c3ccc(C)c(NC(=O)c4ccc(C#N)cc4F)c3)nc2c1` [NCGC00103160-01]: more than 30 µM.
In the case of `Cc1ccc2nc(-c3ccc(NC(=O)COc4ccccc4)cc3)sc2c1` [NCGC00098210-01], the IC50 amounted to 6.24 µM.
Next, `Cc1c(-c2ccccc2F)[nH]c2ccc(CNC(=O)CC3CCC(=O)N3)cc12` (centres unmarked) [NCGC00425710-01]: 9.89 µM; `O=C(Cc1cccc(F)c1)N1CC(Oc2ccc(-c3nc(-c4ccccc4)no3)cc2)C1` [NCGC00441157-01]: 12.4 µM; `CN(c1ccccc1)c1ccc2ncn(C3CC3)c(=O)c2n1` [NCGC00414800-01]: 5.68 µM.
Next, `CCOCC1(C)COc2ccc(C(=O)Nc3ccccc3)cc2N1` (centres unmarked) [NCGC00416079-01]: 18 µM; `Cc1ccc(Cl)cc1-n1ncc2c(N3CCC(C(N)=O)CC3)ncnc21` [NCGC00138952-01]: more than 30 µM; `CCOc1ccc(-n2nc(CO)c(C(=O)NCc3cccc(OC)c3)n2)cc1` [NCGC00117153-01]: 11.1 µM.
For `CCc1ccc(NC(=O)N2CCCC(c3noc(COc4ccccc4)n3)C2)cc1` (centres unmarked) [NCGC00475587-01], the IC50 amounted to 2.79 µM.
The result for `CCn1ccnc1C1CCN(c2nc3ccccc3s2)CC1` [NCGC00442461-01] reads 9.89 µM; that for `CCc1ccccc1NC(=O)c1cc2c(=O)[nH]c(C)cn2n1` [NCGC00453924-01], 15.7 µM.
Regarding `COc1cccc(Nc2cc3c(cn2)CN(Cc2cccnc2)CCN3)c1` [NCGC00411131-01], the IC50 is 10.1 µM.
The result for `Fc1ccccc1Cc1cn2cc(-c3ccc(Cl)cc3)nc2s1` [NCGC00102106-01] reads 1.57 µM; that for `COc1ccc(CC(=O)Nc2ccc(-c3nc4ccccc4s3)c(C)c2)cc1OC` [NCGC00137832-01], more than 30 µM; that for `CNC(=O)c1cccc(-c2cnc(Nc3ccccc3)c3c2CCO3)c1` [NCGC00412768-01], 18 µM.
Next, `Cc1ccc(-n2ncc3c(N4CCC(C)CC4)ncnc32)cc1C` [NCGC00139121-01]: 4.95 µM; `Cc1ccc(N2C(=O)c3[nH]nc(C)c3C2c2ccc(Cl)cc2)cc1` (centres unmarked) [NCGC00108483-01]: 12.4 µM.
Regarding `CCN(CC)c1cc(CCC(=O)O)ccn1` [NCGC00432823-01], the IC50 was found to be 1.4 µM.
With `COc1ccc(-c2nc3ccccc3s2)cc1NC(=O)c1ccc(C#N)cc1F` [NCGC00103038-01], the IC50 is more than 30 µM.
Turning to `CC(C)(C)CC(=O)N1C[C@@H]2C[C@H](C1)c1ccc(NC(=O)Nc3cccc(F)c3)c(=O)n1C2` [NCGC00395227-01], the IC50 was more than 30 µM.
Take `COc1ccc(-c2noc(Nc3ccccc3)n2)cc1` [NCGC00422340-01]: the IC50 was found to be 2.21 µM.
The result for `O=C(Nc1ccccc1)C1CCN(C(=O)N2CC3CC(C2)[C@H]2CCCC(=O)N2C3)CC1` (some centres unmarked) [NCGC00428953-01] reads more than 30 µM.
For the compound `CC(C)(C)CN1CCNc2cc(Nc3cccnc3)ncc2C1` [NCGC00411255-01], the IC50 was 6.4 µM.
Next, `Fc1ccc(Nc2nc(-c3ccccc3F)no2)cc1` [NCGC00422310-01]: 9.89 µM; `c1ccc2cc(-c3nc(C4CCOC4)no3)ncc2c1` (centres unmarked) [NCGC00447332-01]: 17.6 µM.
On to `Cc1cc(-c2cccc(COc3ccc4c(cnn4CC[S+](C)(=O)[O-])c3)c2)ccn1` [NCGC00418048-01], for which the IC50 turned out to be 18 µM.
The result for `Cc1ccc(F)cc1-c1ccc(COc2ccc3c(cnn3CCC(=O)O)c2)cc1` [NCGC00418121-01] reads 18 µM; that for `COc1ccc(-c2cc3c(=O)n(CCNC(=O)c4c(F)cccc4Cl)ccn3n2)cc1` [NCGC00456907-01], 7 µM; that for `COc1cccc(CN2CCc3c(cc(C(=O)Nc4cc(C)ccc4OC)n3C)C2)c1` [NCGC00430592-01], more than 30 µM.
The result for `Cc1ccc(C(=O)Nc2ccc(-c3nc4ccccc4s3)c(O)c2)c(C)c1` [NCGC00134691-01] reads more than 30 µM; that for `O=C(Nc1ccc2c(c1)OCCO2)C1CN([S+](=O)([O-])C2CC2)CC12CCCCC2` (centres unmarked) [NCGC00439803-01], 4.42 µM; that for `O=C1CC2(CCN(CC3CC3)CC2)Oc2cc(Cl)ccc21` [NCGC00476866-01], 18 µM.
The result for `Cc1ccc(-c2cc3c(=O)n(CCNC(=O)Cc4cccc(F)c4)ccn3n2)c(C)c1` [NCGC00456965-01] reads 5.56 µM; that for `COc1ccc(-c2cn3nc(N4CCCC(C(=O)NCc5ccccc5OC)C4)sc3n2)cc1` (centres unmarked) [NCGC00123654-01], 11.1 µM; that for `CCOC(=O)c1ccc(NC(=O)CSc2nnc(CNC(=O)c3ccc(OC)cc3)n2CC)cc1` [NCGC00110413-01], 12.4 µM.
For `O=C(NCCC1CCCCC1)c1c[nH]c2ncccc12` [NCGC00480521-01], the IC50 turned out to be 18 µM.
The result for `Cn1ccc2c(C(=O)NCc3cccnc3)nc(-c3ccc(N4CCOCC4)cc3)cc21` [NCGC00411612-01] reads 18 µM; that for `COc1ccc(-c2nc3ccccc3s2)cc1NC(=O)c1ccccc1F` [NCGC00103034-01], more than 30 µM; that for `Cc1ccc(-c2ncc3c(n2)OCCN(C)C3=O)c(C)c1` [NCGC00413561-01], 22.6 µM.
Next, `c1ccc(-c2noc(-c3nc(C4CC4)no3)n2)cc1` [NCGC00450069-01]: 9.89 µM; `Cc1ccc2nc(-c3ccc(NC(=O)Cc4ccccc4)cc3)sc2c1` [NCGC00098885-01]: 9.89 µM; `Cn1c(=O)c2ccnn2c2ccc(C(=O)Nc3ccc4c(c3)OCCO4)cc21` [NCGC00470050-01]: 9.89 µM.
The result for `O=C(CSc1nccn1Cc1ccco1)Nc1ccc(OC(F)(F)F)cc1` [NCGC00136029-01] reads 12.4 µM; that for `Cc1cn2c(=O)cc(COC(=O)c3cccc(NC(=O)COc4ccccc4Cl)c3)nc2s1` [NCGC00130619-01], 7 µM.
As for `CC[S+](=O)([O-])c1cccc(C(=O)Nc2ccc(-c3nc4ccccc4s3)c(O)c2)c1` [NCGC00134166-03], the IC50 amounted to 4.42 µM.
Regarding `Cc1ccc(C2Cn3nnc(C(=O)N4CCC(C(=O)NCCN5CCCC5)CC4)c3CO2)cc1` (centres unmarked) [NCGC00449567-01], the IC50 turned out to be 9.89 µM.
Turning to `COc1ccc(NC(=O)Nc2cccc(-c3ccc(N4CCOCC4)nn3)c2)cc1Cl` [NCGC00427610-01], the IC50 worked out at 1.24 µM.
Next, `O=C(CCCc1ccccc1)N1CCC2(CC1)CC(O)CCO2` (centres unmarked) [NCGC00452928-01]: 12.4 µM; `CN1CCNc2cc(Nc3ccc(F)c(Cl)c3)ncc2C1` [NCGC00411263-01]: 12.8 µM; `COc1ccc(C(=O)NCCn2ccn3nc(-c4ccc(C)cc4C)cc3c2=O)c(C)c1` [NCGC00456977-01]: 4.95 µM.
Next, `Cc1ccc(C(=O)NC2CC2)cc1-c1ccc2[nH]ncc2c1` [NCGC00242033-03]: more than 30 µM; `O=C(Nc1onc2c1CCCC2)c1ccccc1` [NCGC00115884-01]: 11.1 µM; `O=C(O)c1cccc(-c2noc(-c3cccc(F)c3)n2)c1` [NCGC00168760-01]: 0.007 µM.
Next, `Nc1cccc(-c2ccc(N3CCCCC3)nn2)c1` [NCGC00432709-01]: 0.556 µM; `Cc1nc2ccc(-c3nc(C4CCOC4)no3)cc2s1` (centres unmarked) [NCGC00446448-01]: 11.1 µM.
For the compound `CCC(=O)Nc1cc2nn(-c3ccc(C)cc3)nc2cc1C` [NCGC00098511-01], the IC50 was 0.394 µM.
Consider `CC(C)c1ccc(N2C(=S)N[C@H]3[C@@H](O)[C@H](O)C[C@@H](C(=O)N(C)Cc4ccccc4)[C@H]32)cc1` [NCGC00391233-01], for which the IC50 worked out at 11.1 µM.
The result for `Cc1ccc2nc(-c3ccc(NC(=O)C(F)(F)F)cc3)sc2c1` [NCGC00100068-01] reads 0.785 µM; that for `c1ccc(COc2ccc(CN3CCSCC3)cc2)nc1` [NCGC00446150-01], 12.4 µM; that for `COc1ccc(-c2noc([C@@H]3C[C@@H](O)CN3Cc3cccs3)n2)cc1` [NCGC00400674-01], 20.2 µM.
Take `CC1CCC(NC(=O)c2noc(-c3ccccc3F)n2)CC1` (centres unmarked) [NCGC00447353-01]: the IC50 came out at 12.4 µM.
Consider `c1nc(N2C[C@@H](c3ccc4c(c3)OCO4)[C@@H]3[C@H]2C2CCN3CC2)c2nc[nH]c2n1` [NCGC00444647-01], for which the IC50 was more than 30 µM.
Take `CSc1ccc(/C=C/c2nc3ccccc3n2[S+](=O)([O-])c2ccc(F)c(C)c2)cc1` [NCGC00139450-01]: the IC50 was 0.7 µM.
